Data from publication PMC6915728 (Nature Communications, 2019).
Where two headings read alike, the source gives them in different places.

Experiments:
[1] = tested on: bacterial species in which the gene showed activity; details: cited from earlier work
E. coli BW25113 ΔmlaD = experiment: MIC, serial broth dilution, mlaD knockout strain vs wild type; assay type: cell-based, Escherichia coli; details: mlaD deletion strain relative to control (E. coli BW25113); 3 replicates each; from optical density values of serial dilution plates, AMP in µg ml-1
Procedure: What could be the mechanism behind the antagonistic action of this pathway on membrane- versus intracellular-targeting AMPs? Since MlaD is part of a protein complex, it may lead to a loss-of-function effect upon overexpression[41],[42]. To test this, we asked whether overexpression and deletion of mlaD cause similar changes in susceptibility to a representative set of membrane- and intracellular-targeting AMPs.
(§1) Minimum inhibitory concentrations (MIC) were determined with a standard serial broth dilution technique with a minor modification. Specifically, instead of a two-fold dilution series, smaller AMP concentration steps were used (typically 1.2-fold) for two reasons. […] Second, gene overexpressions caused typically only small changes in the MICs of AMPs and therefore higher resolution was required. The protocol was as follows. From a stock solution of an AMP, 12-steps serial dilution was prepared in fresh MS medium in 96-well microtiter plates. Each AMP was represented in 11 different concentrations (3 wells per AMP concentration per strain). Three wells contained only medium to check the growth in the absence of AMP. After overnight growth in MS medium supplemented with chloramphenicol, bacterial strains were diluted 20-fold into fresh MS medium and grown until the cell density reached OD600 ~1. Cells were induced by 100 µM of IPTG and incubated for 1 h at 30 °C with continuous shaking at 300 rpm. Following incubation, approximately half-million cells were inoculated into the wells of the 96-well microtiter plate with a 96‐pin replicator. We used three independent replicates for each strain and the corresponding control. Two rows in the 96-well plate contained only MS medium in order to obtain the background OD value of the medium. Plates were incubated at 30 °C with continuous shaking at 300 rpm. After 20–24 h of incubation, OD600 values were measured in a microplate reader (Biotek Synergy 2).
A mlaD knockout strain of E. coli BW25113 carrying a kanamycin resistance cassette in the position of the gene was selected from the KEIO collection. The resistance marker was removed using plasmid-borne (pFT-A) expression of FLP recombinase leading to excision of the kanamycin resistance cassette. Cassette excision was verified by a polymerase chain reaction using the primers mlaD_del_ver_Fw (5′- […]) and mlaD_del_ver_Rev (5′- […]).
Supplementary Figure 13. […] The bacterial susceptibility of the mutant to AMPs was tested by MIC determination. Growth is shown relative to growth in the absence of the corresponding AMP. The blue line represents the mlaD knockout strain and the orange line represents the control strain (wild-type E. coli BW25113). Error bars indicate the standard errors based on three biological replicates. Source data are provided in the Source Data file.

[2] = tested on: E. coli BW25113 overexpression strains (ASKA plasmids); experiment: Minimum inhibitory concentration (MIC), serial broth dilution, single-gene overexpression strains vs empty-vector control; assay type: cell-based, Escherichia coli; details: for Relative MIC: broth dilution, MS medium, 100 µM IPTG, 30 °C, 20-24 h, OD600, 3 replicates
Procedure: as §1

bacterial membrane = details: literature mining; ref superscript numbers in the cell, listed in Supplementary Data 7 sheet References; cited from earlier work
Description: Supplement 41467_2019_13618_MOESM10_ESM.xlsx, sheet "AMP details" | column: Pore formation

[3] = tested on: AMP-evolved E. coli lines; details: ref Spohn et al 2019, cited from earlier work
Description: Supplement 41467_2019_13618_MOESM13_ESM.xlsx, sheet "Figure 6 and S15" | column: A comprehensive dataset of antimicrobial susceptibility of AMP-adapted lines to antimicrobial peptides (AMPs).

[4] = overexpression strain narY, MIC of overexpression strain / MIC of empty-plasmid control

GIINTLQKYYRVRGGRAVLSLPKEEQIGKSTRGRKRRKK [HBD3, Human beta-defensin-3, human host-defense peptide; cluster C2]
Gene that modulates bacterial susceptibility to the AMP ([1]; Staphylococcus epidermidis, ref http://onlinelibrary.wiley.com/doi/10.1046/j.1462-5822.2004.00367.x/epdf): icaA(ica operon)
Average relative change in MIC (E. coli BW25113 ΔmlaD): 1.56
Average relative change in MIC ([2]; mlaD overexpression strain relative to control (wild-type+empty vector), 3 replicates each, from optical density values of serial dilution plates, AMP in µg ml-1): 1.75
Relative MIC ([2]; overexpression strain hyfA, MIC of overexpression strain / MIC of empty-plasmid control): 0.8
Relative MIC ([2]; overexpression strain mlaD, MIC of the overexpression strain / MIC of the control strain (wild-type carrying the empty plasmid)): >1.55
Relative MIC [2, 4]: 0.8

Peptide glycine-leucine amide [PGLA]
Pore formation (whether AMP makes pores in the bacterial membrane) (bacterial membrane): Yes10,11
Gene that modulates bacterial susceptibility to the AMP ([1]; Salmonella typhimurium, Salmonella typhi, ref http://www.sciencedirect.com/science/article/pii/S009286740081750X): pagP
Relative change in MIC (MIC of the AMP-adpated line / MIC of the ancestral strain) ([3]; AMP-adapted line BAC5_3): 1.4
Relative change in MIC (MIC of the AMP-adpated line / MIC of the ancestral strain) ([3]; AMP-adapted line BAC5_5): 1.1
Relative change in MIC (MIC of the AMP-adpated line / MIC of the ancestral strain) ([3]; AMP-adapted line BAC5_7): 0.9
Relative change in MIC (MIC of the AMP-adpated line / MIC of the ancestral strain) ([3]; AMP-adapted line BAC5_10): 1.3
Relative change in MIC (MIC of the AMP-adpated line / MIC of the ancestral strain) ([3]; AMP-adapted line CAP18_2): 2.5
Relative change in MIC (MIC of the AMP-adpated line / MIC of the ancestral strain) ([3]; AMP-adapted line CAP18_5): 5.2
Relative change in MIC (MIC of the AMP-adpated line / MIC of the ancestral strain) ([3]; AMP-adapted line CAP18_6): 1.6
Relative change in MIC (MIC of the AMP-adpated line / MIC of the ancestral strain) ([3]; AMP-adapted line CAP18_8): 3
Relative change in MIC (MIC of the AMP-adpated line / MIC of the ancestral strain) ([3]; AMP-adapted line CAP18_10): 4.3
Relative change in MIC (MIC of the AMP-adpated line / MIC of the ancestral strain) ([3]; AMP-adapted line HBD3_3): 2.3
Relative change in MIC (MIC of the AMP-adpated line / MIC of the ancestral strain) ([3]; AMP-adapted line HBD3_6): 3.6
Relative change in MIC (MIC of the AMP-adpated line / MIC of the ancestral strain) ([3]; AMP-adapted line HBD3_8): 3.3
Relative change in MIC (MIC of the AMP-adpated line / MIC of the ancestral strain) ([3]; AMP-adapted line HBD3_10): 1.9
Relative change in MIC (MIC of the AMP-adpated line / MIC of the ancestral strain) ([3]; AMP-adapted line LL37_1): 1.4
Relative change in MIC (MIC of the AMP-adpated line / MIC of the ancestral strain) ([3]; AMP-adapted line LL37_3): 1.9
Relative change in MIC (MIC of the AMP-adpated line / MIC of the ancestral strain) ([3]; AMP-adapted line LL37_6): 1.8
Relative change in MIC (MIC of the AMP-adpated line / MIC of the ancestral strain) ([3]; AMP-adapted line LL37_7): 5.2
Relative change in MIC (MIC of the AMP-adpated line / MIC of the ancestral strain) ([3]; AMP-adapted line LL37_10): 1.8
Relative change in MIC (MIC of the AMP-adpated line / MIC of the ancestral strain) ([3]; AMP-adapted line PEX_1): 3.5
Relative change in MIC (MIC of the AMP-adpated line / MIC of the ancestral strain) ([3]; AMP-adapted line PEX_4): 3.5
Relative change in MIC (MIC of the AMP-adpated line / MIC of the ancestral strain) ([3]; AMP-adapted line PEX_5): 1.9
Relative change in MIC (MIC of the AMP-adpated line / MIC of the ancestral strain) ([3]; AMP-adapted line PEX_6): 2.1
Relative change in MIC (MIC of the AMP-adpated line / MIC of the ancestral strain) ([3]; AMP-adapted line PEX_7): 2.9
Relative change in MIC (MIC of the AMP-adpated line / MIC of the ancestral strain) ([3]; AMP-adapted line PR39_1): 1.6
Relative change in MIC (MIC of the AMP-adpated line / MIC of the ancestral strain) ([3]; AMP-adapted line PR39_2): 1.5
Relative change in MIC (MIC of the AMP-adpated line / MIC of the ancestral strain) ([3]; AMP-adapted line PR39_5): 0.8
Relative change in MIC (MIC of the AMP-adpated line / MIC of the ancestral strain) ([3]; AMP-adapted line PR39_7): 1.5
Relative change in MIC (MIC of the AMP-adpated line / MIC of the ancestral strain) ([3]; AMP-adapted line PR39_10): 0.4
Relative change in MIC (MIC of the AMP-adpated line / MIC of the ancestral strain) ([3]; AMP-adapted line PROA_2): 1.6
Relative change in MIC (MIC of the AMP-adpated line / MIC of the ancestral strain) ([3]; AMP-adapted line PROA_3): 1.1
Relative change in MIC (MIC of the AMP-adpated line / MIC of the ancestral strain) ([3]; AMP-adapted line PROA_7): 0.6
Relative change in MIC (MIC of the AMP-adpated line / MIC of the ancestral strain) ([3]; AMP-adapted line PROA_8): 1.2
Relative change in MIC (MIC of the AMP-adpated line / MIC of the ancestral strain) ([3]; AMP-adapted line PROA_9): 0.9
Relative change in MIC (MIC of the AMP-adpated line / MIC of the ancestral strain) ([3]; AMP-adapted line PXB_2): 1.8
Relative change in MIC (MIC of the AMP-adpated line / MIC of the ancestral strain) ([3]; AMP-adapted line PXB_5): 1.5
Relative change in MIC (MIC of the AMP-adpated line / MIC of the ancestral strain) ([3]; AMP-adapted line PXB_6): 8
Relative change in MIC (MIC of the AMP-adpated line / MIC of the ancestral strain) ([3]; AMP-adapted line PXB_8): 4.5
Relative change in MIC (MIC of the AMP-adpated line / MIC of the ancestral strain) ([3]; AMP-adapted line PXB_10): 5.5
Relative MIC ([2]; overexpression strain gadW, MIC of overexpression strain / MIC of empty-plasmid control): 0.63
Relative MIC ([2]; overexpression strain lptB, MIC of overexpression strain / MIC of empty-plasmid control): 1.66
Relative MIC ([2]; overexpression strain mlaC, MIC of overexpression strain / MIC of empty-plasmid control): 1.3
Relative MIC ([2]; overexpression strain mzrA, MIC of overexpression strain / MIC of empty-plasmid control): 1.2
Relative MIC [2, 4]: 0.8
Relative MIC ([2]; overexpression strain nikB, MIC of overexpression strain / MIC of empty-plasmid control): 1.25
Relative MIC ([2]; overexpression strain ptsN, MIC of overexpression strain / MIC of empty-plasmid control): 0.71
Relative MIC ([2]; overexpression strain uhpC, MIC of overexpression strain / MIC of empty-plasmid control): 1.25
